Results from Sander's compilation of Henry's law constants.
Values joined by “and” are separate entries in the source; they are usually repeats but may differ in a detail not shown here. Equal entries are not always repeated.

Tests used:
[1] = Henry solubility constant Hcp at 283 K (mol/(m3 Pa)); conditions: reference: Holdren et al. (1984)
[2] = Henry solubility constant Hcp at 293 K (mol/(m3 Pa))
[3] = Henry solubility constant Hcp at 298.15 K (mol/(m3 Pa))
[4] = Henry solubility constant Hcp at 301 K (mol/(m3 Pa)); conditions: reference: Nelson and Hoff (1968)
[5] = Henry solubility constant Hcp at 303 K (mol/(m3 Pa)); conditions: reference: Richon et al. (1985)
[6] = Henry solubility constant Hcp at 288 K (mol/(m3 Pa))
[7] = Henry solubility constant Hcp at 294 K (mol/(m3 Pa))
[8] = Henry solubility constant Hcp at 313 K (mol/(m3 Pa)); conditions: reference: Vitenberg et al. (1974)
[9] = Henry solubility constant Hcp at 311 K (mol/(m3 Pa)); conditions: reference: Grollman (1929)
[10] = Henry solubility constant Hcp at 297 K (mol/(m3 Pa)); conditions: reference: Nozière and Riemer (2003)
[11] = Henry solubility constant Hcp at 284 K (mol/(m3 Pa)); conditions: reference: George et al. (1994b)
[12] = Henry solubility constant Hcp at 278 K (mol/(m3 Pa)); conditions: reference: De Bruyn et al. (1995a)
[13] = reference: Straver and de Loos (2005)
[14] = reference: Vitenberg et al. (1974)

CC(=O)OO[N+](=O)[O-] [peroxyacetyl nitrate]
Henry solubility constant Hcp at 283 K [1]: 0.049
Henry solubility constant Hcp at 293 K ([2]; reference: Kames and Schurath (1995)): 0.04
Henry solubility constant Hcp ([3]; reference: Easterbrook et al. (2023)): 0.03
Henry solubility constant Hcp ([3]; reference: Frenzel et al. (2000)): 0.023
Henry solubility constant Hcp ([3]; reference: Kames et al. (1991)): 0.028

CCOC(C)=O [ethyl ethanoate]
Henry solubility constant Hcp at 301 K [4]: 0.057
Henry solubility constant Hcp at 303 K [5]: 0.043
Henry solubility constant Hcp ([3]; reference: Ammari and Schroen (2019)): 0.052
Henry solubility constant Hcp ([3]; reference: Aprea et al. (2007)): 0.051
Henry solubility constant Hcp ([3]; reference: Butler and Ramchandani (1935)): 0.074
Henry solubility constant Hcp ([3]; reference: Druaux et al. (1998)): 0.066
Henry solubility constant Hcp ([3]; reference: Fenclová et al. (2014)): 0.062
Henry solubility constant Hcp ([3]; reference: Jones et al. (1988)): 0.062
Henry solubility constant Hcp ([3]; reference: Kieckbusch and King (1979b)): 0.058
Henry solubility constant Hcp ([3]; reference: Kutsuna and Kaneyasu (2021)): 0.059
Henry solubility constant Hcp ([3]; reference: Kutsuna et al. (2005)): 0.059
Henry solubility constant Hcp ([3]; reference: Landy et al. (1995)): 0.057
Henry solubility constant Hcp at 288 K ([6]; reference: Ioffe et al. (1984)): 0.13
Henry solubility constant Hcp at 288 K ([6]; reference: Pividal et al. (1992)): 0.11

Clc1cc(Cl)c(-c2ccc(Cl)c(Cl)c2Cl)cc1Cl [2,2',3,4,4',5'-hexachlorobiphenyl]
Henry solubility constant Hcp ([3]; reference: Murphy et al. (1983a)): 0.021
Henry solubility constant Hcp at 294 K ([7]; reference: Brownawell (1986)): 0.14

CCCC(C)=O [2-pentanone]
Henry solubility constant Hcp at 301 K [4]: 0.092
Henry solubility constant Hcp ([3]; reference: Chai et al. (2005)): 0.1
Henry solubility constant Hcp ([3]; reference: Hawthorne et al. (1985)): 0.09
Henry solubility constant Hcp ([3]; reference: Hovorka et al. (2019)): 0.13
Henry solubility constant Hcp ([3]; reference: Ji and Evans (2007)): 0.16
Henry solubility constant Hcp ([3]; reference: Kim et al. (2000)): 0.11
Henry solubility constant Hcp [3, 13]: 0.086
Henry solubility constant Hcp [3, 14]: 0.17
Henry solubility constant Hcp at 313 K [8]: 0.11

C=C [ethene]
Henry solubility constant Hcp at 311 K [9]: 3.4e-05
Henry solubility constant Hcp ([3]; reference: Maaßen (1995)): 4.9e-05
Henry solubility constant Hcp ([3]; reference: Morrison and Billett (1952)): 4.7e-05
Henry solubility constant Hcp ([3]; reference: Orcutt and Seevers (1937a)): 4.8e-05
Henry solubility constant Hcp ([3]; reference: Reichl (1995)): 4.8e-05
Henry solubility constant Hcp ([3]; reference: Winkler (1906)): 4.8e-05

CC(C)=O [propanone]
Henry solubility constant Hcp at 301 K [4]: 0.31
Henry solubility constant Hcp at 293 K ([2]; reference: Yu (1992)): 0.17
Henry solubility constant Hcp at 303 K [5]: 0.19
Henry solubility constant Hcp ([3]; reference: Benkelberg et al. (1995)): 0.27
Henry solubility constant Hcp ([3]; reference: Betterton (1991)): 0.32
Henry solubility constant Hcp ([3]; reference: Burnett (1963)): 0.28
Henry solubility constant Hcp ([3]; reference: Chai et al. (2005)): 0.24
Henry solubility constant Hcp ([3]; reference: Ioffe et al. (1984)): 0.2
Henry solubility constant Hcp ([3]; reference: Ji and Evans (2007)): 0.26
Henry solubility constant Hcp ([3]; reference: Lichtenbelt and Schram (1985)): 0.26
Henry solubility constant Hcp ([3]; reference: Poulain et al. (2010)): 0.29
Henry solubility constant Hcp ([3]; reference: Schoene and Steinhanses (1985)): 0.32
Henry solubility constant Hcp ([3]; reference: Snider and Dawson (1985)): 0.25
Henry solubility constant Hcp [3, 13]: 0.24
Henry solubility constant Hcp ([3]; reference: Strekowski and George (2005)): 0.26
Henry solubility constant Hcp [3, 14]: 0.25 and 0.32
Henry solubility constant Hcp ([3]; reference: Vitenberg et al. (1975)): 0.25
Henry solubility constant Hcp at 297 K [10]: 0.27

O=C(F)C(F)(F)F [trifluoroacetylfluoride]
Henry solubility constant Hcp at 284 K [11]: 0.03
Henry solubility constant Hcp ([3]; reference: Mirabel et al. (1996)): 0.03
Henry solubility constant Hcp at 278 K [12]: 0.0095

CI [iodomethane]
Henry solubility constant Hcp ([3]; reference: Balls (1980)): 0.002
Henry solubility constant Hcp ([3]; reference: Elliott and Rowland (1993)): 0.002
Henry solubility constant Hcp ([3]; reference: Glew and Moelwyn-Hughes (1953)): 0.0019
Henry solubility constant Hcp ([3]; reference: Hunter-Smith et al. (1983)): 0.0019
Henry solubility constant Hcp ([3]; reference: Swain and Thornton (1962)): 0.0018
Henry solubility constant Hcp at 294 K ([7]; reference: Gan and Yates (1996)): 0.0019

C#C [ethyne]
Henry solubility constant Hcp at 311 K [9]: 0.00033
Henry solubility constant Hcp ([3]; reference: Gatterer (1926)): 0.00042
Henry solubility constant Hcp ([3]; reference: Jadkar and Chaudhari (1980)): 0.0004
Henry solubility constant Hcp ([3]; reference: Kremann and Hönel (1913)): 0.00037
Henry solubility constant Hcp ([3]; reference: Maillard and Rosenthal (1952)): 0.00025
Henry solubility constant Hcp ([3]; reference: Winkler (1906)): 0.00041
Henry solubility constant Hcp at 288 K ([6]; reference: Billitzer (1902)): 0.00051
